Data from publication PMC4076210, “Discovery of Novel AKT Inhibitors with Enhanced Anti-Tumor Effects in Combination with the MEK Inhibitor” (PLoS ONE, 2014).

Tested on: hematological tumor cell lines
Experiment: 3-day proliferation assay (CellTiter-Glo)
Type: cell-based, human
Conditions: for IC50: Homo sapiens
Experimental: Various tumor cell lines were obtained from different sources including; the American Type Cell Culture Collection, the Developmental Therapeutics Program, the National Cancer Institute, the German Resource Center for Biological Material and the European Collection of Animal Cell Cultures. Cell lines were typically grown in […] containing 10% FBS. Some cell lines were grown in media specified by the vendor. A 3-day proliferation assay using CellTiter-Glo (CTG, Promega) was performed to measure the growth inhibition by the compounds at 0–30 µM. Cell growth was determined relative to untreated (DMSO) controls. EC50's were calculated from inhibition curves using a 4- or 6-parameter fitting algorithm in the Assay Client application.

Cn1ncc(Cl)c1-c1cc(C(=O)N[C@H](CN)Cc2ccc(F)c(F)c2)oc1Cl [GSK2141795]
hematological cell lines sensitive (EC50<1 µM) (112 cell lines, 3 days, CTG): 81%
IC50 (1A2, 1A2 cell line, Burkitt's Lymphoma, B Cell): 93 nM
IC50 (697 cell line, ALL, pre-B Cell): 300 nM
IC50 (ARH-77, ARH77 cell line, Multiple Myeloma, B Cell): 155 nM
IC50 (B-cell, BDCM cell line, AML, B Cell): 14 nM
IC50 (B-cell, CESS cell line, AML, B Cell): 9 nM
IC50 (B-cell, CRO-AP3 cell line, Primary Effusion Lymphoma (PEL), B Cell): 113 nM
IC50 (B-cell, EHEB cell line, CLL, B Cell): 51 nM
IC50 (B-cell, HKB-11 cell line, Burkitt's Lymphoma, B Cell): 52 nM
IC50 (B-cell, HS-Sultan cell line, Burkitt's Lymphoma, B Cell): 226 nM
IC50 (B-cell, KARPAS-231 cell line, ALL, B Cell): 36 nM
IC50 (B-cell, MC/CAR cell line, Multiple Myeloma, B Cell): 40 nM
IC50 (B-cell, MN60 cell line, ALL, B Cell): 653 nM
IC50 (B-cell, Namalwa cell line, Burkitt's Lymphoma, B Cell): 300 nM
IC50 (B-cell, SD-1 cell line, ALL, B Cell): 15 nM
IC50 (B-cell, Tanoue cell line, ALL, B Cell): 1460 nM
IC50 (BC1, BC1 cell line, Burkitt's Lymphoma, B Cell): 465 nM
IC50 (BC-3, BC3 cell line, Burkitt's Lymphoma, B Cell): 3130 nM
IC50 (BV-173, BV173 cell line, CML, pre-B Cell): 860 nM
IC50 (CA46, CA46 cell line, Burkitt's Lymphoma, B Cell): 948 nM
IC50 (CCRF-CEM, CCRFCEM cell line, ALL, T Cell): 146 nM
IC50 (CCRF-SB, CCRFSB cell line, ALL, B Cell): 20 nM
IC50 (CEM/C1, CEM/C1 cell line, ALL, T Cell): 30 nM
IC50 (CEM/C2, CEM/C2 cell line, ALL, T Cell): 22 nM
IC50 (CML-T1, CML-T1 cell line, CML, T Cell): 5230 nM
IC50 (CRO-AP5, CRO-AP5 cell line, Primary Effusion Lymphoma (PEL), B Cell): 34 nM
IC50 (DB, DB cell line, Non-Hodgkin's Lymphoma, B Cell): 5220 nM
IC50 (DG-75, DG75 cell line, Burkitt's Lymphoma, B Cell): 14800 nM
IC50 (DOHH-2, DOHH-2 cell line, Non-Hodgkin's Lymphoma, B Cell): 10.5 nM
IC50 (Daudi, DAUDI cell line, Burkitt's Lymphoma, B Cell): 269 nM
IC50 (EB1, EB1 cell line, Burkitt's Lymphoma, B Cell): 49 nM
IC50 (EB2, EB2 cell line, Burkitt's Lymphoma, B Cell): 256 nM
IC50 (EB-3, EB3 cell line, Burkitt's Lymphoma, B Cell): 1760 nM
IC50 (EM-2, EM2 cell line, CML, Unspecified): 1650 nM
IC50 (Farage cell line, Non-Hodgkin's Lymphoma, B Cell): 103 nM
IC50 (GA-10, GA-10 cell line, Burkitt's Lymphoma, B Cell): 17 nM
IC50 (GDM-1, GDM-1 cell line, AML, Monoblast): 3070 nM
IC50 (HD-MY-Z cell line, Hodgkin's Lymphoma, Unspecified): 8290 nM
IC50 (HEL 92.1.7, HEL92.1.7 cell line, AML, Erythroleukemia): 7760 nM
IC50 (HH, HH cell line, Non-Hodgkin's Lymphoma (CTCL), T Cell): 85 nM
IC50 (HL-60, HL-60 cell line, AML, Myeloblast): 3720 nM
IC50 (HSB2, HSB2 cell line, ALL, T Cell): 576 nM
IC50 (HT, HT cell line, Burkitt's Lymphoma, B Cell): 93 nM
IC50 (HuT78, HuT78 cell line, Non-Hodgkin's Lymphoma (CTCL), T Cell): 147 nM
IC50 (J.gamma1, J.Gamma-1 cell line, ALL, T Cell): 21 nM
IC50 (JIYOYE, JIYOYE cell line, Burkitt's Lymphoma, B Cell): 536 nM
IC50 (JM1, JM1 cell line, Burkitt's Lymphoma, pre-B Cell): 212 nM
IC50 (JVM13, JVM13 cell line, CLL, B Cell): 84 nM
IC50 (JVM-2, JVM2 cell line, CLL, B Cell): 13 nM
IC50 (JVM-3, JVM-3 cell line, CLL, B Cell): 8480 nM
IC50 (Jurkat, Jurkat cell line, ALL, T Cell): 17 nM
IC50 (K562, K562 cell line, CML, Lymphoblast): 9780 nM
IC50 (KG-1, KG-1 cell line, AML, B Cell): 281 nM
IC50 (KU812, Ku812 cell line, CML, Basophilic Leukocyte): 72 nM
IC50 (Kasumi 1, Kasumi-1 cell line, AML, Myeloblast): 22.3 nM
IC50 (Kasumi-2 cell line, AML, Myeloblast): 457 nM
IC50 (L-428, L428 cell line, Hodgkin's Lymphoma, Unspecified): 1.2 nM
IC50 (MC116, MC116 cell line, Burkitt's Lymphoma, B Cell): 320 nM
IC50 (MEC1, MEC1 cell line, CLL, B Cell): 168 nM
